Values after ≈ are worked out from the molar mass of the structure shown.
Key:
Erwinia amylovora [1] = experiment: Orchard pollination test (II): liquid pollination, bacteria-free pollen, orchard with moderate pear fire blight; details: artificial pollination with pollen containing the agent, moderate occurrence orchard
Description: 10 g of xanthan gum was dissolved in 2.5 L of continuously-boiling water and cooled to obtain a solution I; 6.5 kg of white sugar was dissolved with 10 L of hot water to obtain a solution II; 25 g of calcium nitrate and 5 g of boric acid were dissolved in 0.5 L of water to obtain a solution III; the above three solutions were poured into a large container, then added with 30 L of water, and stirred well to prepare a nutrient solution for later use. […]
4 g of the pollen was added to 4 L of a prepared nutrient solution containing the agent, stirred to make the pollen evenly dispersed to prepare a pollen suspension, which was then pollinated by spraying with a shoulder-back electric sprayer. […] A pollen suspension prepared with water instead of the agent was set as a positive control group, and the pollen suspension prepared with water instead of the agent and sprayed on disease-free trees was set as a negative control group, and 3 trees were treated by each group.2 weeks after pollination, a fruit setting rate and the number of flower rot and diseased fruit were counted to calculate an incidence.

[2] = system: Erwinia amylovora XJSZ0102; experiment: Inhibition zone (filter paper) method, high-concentration screening of 52 agents; type: cell-based; details: results of filter paper method and turbidimetry; at a high concentration
Erwinia amylovora [3] = experiment: Orchard pollination test (I): liquid pollination, bacteria-carrying pollen, disease-free bergamot pear trees; details: artificial pollination with pollen suspension containing the agent
Description: 10 g of xanthan gum was dissolved in 2.5 L of continuously-boiling water and cooled to obtain a solution I; 6.5 kg of white sugar was dissolved with 10 L of hot water to obtain a solution II; 25 g of calcium nitrate and 5 g of boric acid were dissolved in 0.5 L of water to obtain a solution III; the above three solutions were poured into a large container, then added with 30 L of water, and stirred well to prepare a nutrient solution for later use.
Each agent was diluted with water to form a stock solution, and 100 mL of the stock solution was added to 9.9 L of the nutrient solution, fully stirred and mixed, such that a final concentration of the agent in the nutrient solution was shown in Table 7, and 9 groups of agent treatments were obtained in total.
4 g of the pollen was added to 4 L of a prepared nutrient solution containing the agent, stirred to make the pollen evenly dispersed to prepare a pollen suspension, which was then pollinated by spraying with a shoulder-back electric sprayer. The pollination period was at 40% blooming and at 80% blooming separately, each tree was sprayed with 1 L of the pollen suspension, and each agent treatment group was sprayed to pollinate 3 trees. […] 2 weeks after pollination, a fruit setting rate and the number of flower rot and diseased fruit were counted to calculate an incidence.

[4] = system: Erwinia amylovora XJSZ0102; experiment: Toxicity of bactericides against Erwinia amylovora (growth inhibition OD600, EC50 regression)
[5] = Erwinia amylovora, XJSZ0102, 24 h, read-out: Inhibition rate (%)

Compound | incidence of pear fire blight-based flower rot and fruit rot, compared with positive control group (Erwinia amylovora [1]) | bacteriostatic effect on Erwinia amylovora [2] | incidence of flower rot and fruit rot caused by pear fire blight, compared with positive control (Erwinia amylovora [3]) | Inhibition rate (%) ([4]; concentration 0.100 mg/L, 24 h) | Inhibition rate (%) ([4]; concentration 0.160 mg/L, 24 h) | Inhibition rate (%) ([4]; concentration 0.256 mg/L, 24 h) | Inhibition rate (%) ([4]; concentration 0.410 mg/L, 24 h) | Inhibition rate (%) ([4]; concentration 0.655 mg/L, 24 h) | EC50 ([4]; toxic regression analysis of bacteriostasis rate, 24 h) | EC50 ([4]; Erwinia amylovora, XJSZ0102, 24 h) | inhibition at 0.0125 µg/mL [4, 5] | inhibition at 0.0175 µg/mL [4, 5] | inhibition at 0.025 µg/mL [4, 5] | inhibition at 0.035 µg/mL [4, 5] | inhibition at 0.05 µg/mL [4, 5]
zhongshengmycin | significantly lower than that of the positive control group | desirable bacteriostatic effect | significantly lower incidence than that of the positive control | 28.58% | 40.31% | 56.63% | 66.08% | 81.07% | 0.22 mg/L | – | – | – | – | – | –
CCCSc1ccc2nc(NC(=O)OC)[nH]c2c1 [Albendazole, albendazole] | significantly lower than that of the positive control group | desirable bacteriostatic effect | significantly lower incidence than that of the positive control | – | – | – | – | – | – | 0.022 mg/L (≈ 0.0829 µM) | 15.2% | 33% | 54.6% | 82% | 95.4%

Reference: US20230240288A1, “FRUIT TREE POLLINATION METHOD FOR PREVENTING AND CONTROLLING ERWINIA AMYLOVORA-CAUSED DISEASE” (ZHEJIANG UNIVERSITY, priority 2022, published 2023)
